Where two headings read alike, the source gives them in different places.
Assays:
Assay type in all cases: cell-based
[1] = test system: human peripheral blood mononuclear cells; experiment: Cytokine profiling in LPS-stimulated hPBMC; conditions: for IL-10 (% of control) / MCP-1 (% of control) / RANTES (% of control): 0.1 μM concentration; for IC50: Homo sapiens, PBMC, 18 h, LPS 1 ng/ml, 18 hours
Protocol: Fifty ml human buffy coat was aliquoted 25 ml each into two 50 ml conical tubes and 25 ml sterile HBSS was added to each conical tube. The tubes were gently mixed by inverting. Fifteen ml of room temperature Ficoll-Paque Plus (GE Healthcare (location); cat #17-1440-02) was aliquoted into four 50 ml conical tubes. Then 25 ml of the Buffy coat/IBSS mixture was layered gently and slowly on top of the Ficoll. The samples were centrifuged at 450 rpm for 35 minutes. The top layered containing plasma was pipetted off and discarded. The interface containing mononuclear cells was transferred into two 50 ml conical tubes. Both conical tubes were filled to total volume of 50 ml with HBSS and centrifuged at 1200 rpm for 10 minutes. The cells were washed again in HBSS and spun at 1000 rpm for 10 minutes. Cell pellet was resuspended with 20 ml RPMI complete medium (RPMI/5% human sera/1× pen/strep/glut) and counted.
One hundred μl (2×10^6/ml) of hPBMCs were added to each well of a 96 well flat-bottom plate (final cell count=2×10^5/well) and incubated at 37° C. for 1 hour. Twenty μl (10×) compound was added to each test well and twenty μl medium containing 2.5% DMSO was added to each control well ([DMSO]final=0.25%) and plate was incubated for 1 hour at 37° C. Cells were then stimulated with 80 μl of 2.5 ng/ml LPS ([LPS]final=1 ng/ml) and incubated for 18 hours at 37° C. Fifty μl supernatant from each well was transferred into 3 new round-bottomed 96 well plates and stored at −20° C. for Luminex analysis. Duplicate wells were performed for each sample.
Supernatant samples were analyzed for cytokines in multiplex format according to the manufacturer's instructions (Millipore, Billerica, Ma 01821) using a Luminex IS100 instrument. IL-12 and GM-CSF analyses were done in a two-plex format using neat supernatants while all other cytokines were done in a multiplex format using supernatants diluted 1:20. Data analysis was performed using Upstate Beadview software. […] The IC50 were performed using GraphPad Prism v5.00. The data values represent the mean+SEM (standard error of the mean) of n (number of experiments in duplicate).

[2] = test system: Human umbilical vascular endothelial cells; experiment: Growth factor-induced HUVEC tube formation assay; conditions: for VEGF-induced HUVEC tube formation (tube length and tube area): VEGF 25 ng/mL
Protocol: Human Umbilical Vascular Endothelial Cell Tube Formation Assay: Compounds were tested in the growth factor-induced HUVEC tube formation assay. The tube formation plates were incubated at 37° C. for 30 minutes for matrigel to polymerize. The HUVECs were starved in 0.1% BSA basal EBM2 medium for 5 hours after washing with the same medium 3 times. The cells were trypsinized and centrifuged. Then 25 μL of 4× serially diluted compounds (10, 1, 0.1, 0.01, 0.001, 0.0001, 0.00001 μM) were added in duplicate with 50 μL of 2×10^4 cells/well to tube formation plates coated with matrigel. […] of 4×VEGF (final concentration=25 ng/mL) or bFGF (final concentration=10 ng/mL) were added to the plates. The cells were then incubated overnight (˜18 hours) at 37° C. in a humidified incubator. The tubule webs were stained with calcein AM at 4 g/L in 2% FBS/IBSS for 30 minutes and images taken by fluorescence microscopy. The tubules were quantified by the MetaMorph tube formation software program for tube area and tube length.
(§1) The percentage inhibition of cell proliferation, tube formation, migration, and invasion was calculated by subtracting the result for unstimulated DMSO control from test sample results, averaging all replicates, and normalizing to the growth factor-stimulated DMSO control (0% inhibition). The IC50 values were calculated by using GraphPad Prism 5.0.

[3] = test system: Human umbilical vascular endothelial cells; experiment: Growth factor-induced HUVEC proliferation assay; conditions: for IC50: Homo sapiens, Endothelial cell
Protocol: Human Umbilical Vascular Endothelial Cells Proliferation Assay: Human umbilical vascular endothelial cells were thawed and grown in EGM2 medium until passage 3 to 6 for all proliferation assays. Human umbilical vascular endothelial cells were trypsinized, washed with 20% FBS/M199 medium and plated with the same medium at 10^4 cells/100 μL per well to 96-well cell culture plates. The plates were incubated overnight at 37° C. to allow cells to adhere. The cells were then starved in 1% FBS/M199 medium for 18 hours after washing with the same medium 3 times. For optimization of the concentration of the growth factors in the HUVEC proliferation assay, 100 µL/well of the 2× serial diluted growth factors, starting at 100 ng/mL, were added to HUVECs in duplicate for 72 hours at 37° C. in a humidified cell culture incubator with 5% CO2. For analysis of test compounds, a serial dilution of the test compounds in 0.4% DMSO/1% FBS/M199 medium in duplicate was made from the 10 mM stock. Fifty microliters per well of the serially diluted test compounds (10, 1.0, 0.1, 0.01, 0.001, 0.0001, 0.00001 μM) were added to the cells for 1 to 2 hours at 37° C. The final DMSO concentration in the cells is 0.1%. Then 50 μL of 4× final concentration of relative growth factors was added to each well in duplicate for 72 hours at 37° C. in a humidified cell culture incubator with 5% CO2. Thymidine incorporation was measured by adding one microcurie of 3H-thymidine (Amersham) in 20 μL medium to each well and incubated at 37° C. in a humidified cell culture incubator with 5% CO2 for 5 to 6 hours. The cells were then trypsinized and harvested onto UniFilter GF/C filter plates (Perkin Elmer) by using the cell harvester (Tomtec). After the plates were air dried, 20 μL/well of Microscint 20 (Packard) was added then the plates were analyzed in TopCount NXT (Packard). Each well was counted for one minute. The experiments were performed in duplicate in each of 3 donors.
as §1

[4] = read-out: GM-CSF production IC50
[5] = read-out: IL-1β production IC50
[6] = read-out: MIP-1α production IC50
[7] = read-out: MIP-1β production IC50
[8] = read-out: TNF-α production IC50
[9] = read-out: bFGF (10 ng/mL) IC50 Values, bFGF-induced proliferation
[10] = HGF-induced proliferation, read-out: HGF (25 ng/mL) IC50 Values
[11] = VEGF-induced proliferation, read-out: VEGF (25 ng/mL) IC50 Values

| Structure (SMILES) | IL-10 (% of control) [1] | MCP-1 (% of control) [1] | RANTES (% of control) [1] | IC50 [1, 4] [nM] | IC50 [1, 5] [nM] | IC50 ([1]; read-out: IL-6 production IC50) [nM] | IC50 ([1]; read-out: IL-8 production IC50) [nM] | IC50 ([1]; read-out: MDC production IC50) [nM] | IC50 [1, 6] [nM] | IC50 [1, 7] [nM] | IC50 [1, 8] [nM] | VEGF-induced HUVEC tube formation (tube length and tube area) [2] | inhibition of VEGF-, bFGF-, or HGF-induced HUVEC proliferation [3] | IC50 [3, 9] [µM] | IC50 [3, 10] [µM] | IC50 [3, 11] [µM] | concentrations with significant enhancement of proliferation ([3]; bFGF-treated HUVECs) [µM] | inhibition of tube area and length ([2]; VEGF-induced, 10 μM, p<0.05 vs stimulated DMSO control) | concentrations with significant enhancement of proliferation ([3]; VEGF-treated HUVECs) [µM] |
| --- | --- | --- | --- | --- | --- | --- | --- | --- | --- | --- | --- | --- | --- | --- | --- | --- | --- | --- | --- |
| O=C1CCC(N2Cc3c(OCc4ccc(CN5CCOCC5)cc4)cccc3C2=O)C(=O)N1 (racemic) [Compound I, 3-(4-((4-(morpholinomethyl)benzyl)oxy)-1-oxoisoindolin-2-yl)piperidine-2,6-dione] | 372 % of control | 208 % of control | 153 % of control | 9.2 | 0.85 | 10 | > 10000 | 2.6 | 190 | > 10000 | 1.8 | trend toward inhibiting | did not inhibit | 99 | 24 | > 100 | 0.01 to 1 |  |  |
| O=C1CC[C@@H](N2Cc3c(OCc4ccc(CN5CCOCC5)cc4)cccc3C2=O)C(=O)N1 [Compound I-R, (R)-3-(4-((4-(morpholinomethyl)benzyl)oxy)-1-oxoisoindolin-2-yl)piperidine-2,6-dione] | 442 % of control | 223 % of control | 151 % of control | 39 | 6.2 | 83 | > 10000 | 12 |  | > 10000 | 9.5 | trend toward inhibiting | did not inhibit | 76 | 38 | > 100 |  | significant inhibition |  |
| O=C1CC[C@H](N2Cc3c(OCc4ccc(CN5CCOCC5)cc4)cccc3C2=O)C(=O)N1 [Compound I-S, (S)-3-(4-((4-(morpholinomethyl)benzyl)oxy)-1-oxoisoindolin-2-yl)piperidine-2,6-dione] | 379 % of control | 233 % of control | 153 % of control | 2.2 | 0.46 | 3.8 | > 10000 | 2.1 | 28 | > 10000 | 0.59 | trend toward inhibiting | did not inhibit | 52 | 51 | > 100 |  |  | 1 to 10 |
